Test results: patent US7223773B2, “4-oxoquinolizine antibacterial agent having 2-pyridone skeleton as partial structure” (Salo Pharmaceutical Co., Ltd., priority 2001, dated 2007)
≈ marks a conversion by molar mass, not a printed value.

Experiments:
Type in all cases: cell-based
[1] = tested on: Bacillus subtilis JCM 2499; experiment: in vitro antibacterial activity, agar plate dilution method (MIC); conditions: JCM2499, read-out: Antimicrobial spectrum MIC
Procedure: (§1) The in vitro antibacterial activities of the compounds provided by the present invention were tested by a standard method of Chemotherapy Society of Japan, i.e. an agar plate dilution method disclosed in CHEMOTHERAPY Vol. 29, pages 76–79, 1981, and the activities of them on anaerobic bacteria were tested by a method disclosed in CHEMOTHERAPY Vol. 27, 559–590, 1979. The results were shown in terms of the minimum inhibition concentration (MIC, μg/ml) for the growth of the bacteria.

[2] = tested on: Branhamella catarrhalis IID 5233; experiment: as above; conditions: Moraxella catarrhalis, IID5233, read-out: Antimicrobial spectrum MIC
Procedure: as §1

[3] = tested on: Enterococcus faecalis CSJ 1212; experiment: as above; conditions: CSJ1212, read-out: Antimicrobial spectrum MIC
Procedure: as §1

[4] = tested on: Enterococcus faecalis RIMD 3116001; experiment: as above; conditions: RIMD3116001, read-out: Antimicrobial spectrum MIC
Procedure: as §1

[5] = tested on: Escherichia coli IFO 12734; experiment: as above; conditions: IFO12734, read-out: Antimicrobial spectrum MIC
Procedure: as §1

[6] = tested on: Haemophilus influenzae IID 984; experiment: as above; conditions: IID984, read-out: Antimicrobial spectrum MIC
Procedure: as §1

[7] = tested on: Klebsiella pneumoniae IID 865; experiment: as above; conditions: IID865, read-out: Antimicrobial spectrum MIC
Procedure: as §1

[8] = tested on: Micrococcus luteus KI 3122; experiment: as above; conditions: KI3122, read-out: Antimicrobial spectrum MIC
Procedure: as §1

[9] = tested on: Pseudomonas aeruginosa CSJ 1853; experiment: as above; conditions: CSJ1853, read-out: Antimicrobial spectrum MIC
Procedure: as §1

[10] = tested on: Staphylococcus aureus Clin-211(MRSA); experiment: as above; conditions: read-out: Antimicrobial spectrum MIC
Procedure: as §1

[11] = tested on: Staphylococcus aureus IFO 13276; experiment: as above; conditions: IFO13276, read-out: Antimicrobial spectrum MIC
Procedure: as §1

[12] = tested on: Staphylococcus aureus IID 803(Smith); experiment: as above; conditions: IID803, read-out: Antimicrobial spectrum MIC
Procedure: as §1

[13] = tested on: Staphylococcus aureus JCM 2874; experiment: as above; conditions: JCM2874, read-out: Antimicrobial spectrum MIC
Procedure: as §1

[14] = tested on: Staphylococcus epidermidis IFO 12993; experiment: as above; conditions: IFO12993, read-out: Antimicrobial spectrum MIC
Procedure: as §1

[15] = tested on: Streptococcus pneumoniae IID 553; experiment: as above; conditions: IID553, read-out: Antimicrobial spectrum MIC
Procedure: as §1

[16] = tested on: Bacteroides fragilis GAI 0675; experiment: in vitro antibacterial activity on anaerobic bacteria (MIC); conditions: GAI0675; Bacteroides fragilis GAI 0675, anaerobic; read-out: Antimicrobial spectrum MIC
Procedure: as §1

[17] = tested on: Bacteroides thetaiotaomicron ATCC 29741; experiment: as above; conditions: ATCC29741; Bacteroides thetaiotaomicron ATCC 29741, anaerobic; read-out: Antimicrobial spectrum MIC
Procedure: as §1

[18] = tested on: Propionibacterium acnes JCM 6425; experiment: as above; conditions: Cutibacterium acnes, JCM6425; Propionibacterium acnes JCM 6425, anaerobic; read-out: Antimicrobial spectrum MIC
Procedure: as §1

COc1ccc(-c2ccn3c(=O)c(C(=O)O)cc(C4CC4)c3c2C)cc1CN [Example 121, 8-(3-Aminomethyl-4-methoxyphenyl)-1-cyclopropyl-9-methyl-4-oxo-4H-quinolizine-3-carboxylic acid]
MIC [1]: ≤ 0.004 µg/mL | MIC [2]: 0.063 µg/mL (≈ 0.166 µM) | MIC [3]: 0.031 µg/mL (≈ 0.0819 µM) | MIC [4]: 0.063 µg/mL (≈ 0.166 µM) | MIC [5]: 0.063 µg/mL (≈ 0.166 µM) | MIC [6]: 0.008 µg/mL (≈ 0.0211 µM) | MIC [7]: ≤ 0.004 µg/mL | MIC [8]: 0.125 µg/mL (≈ 0.33 µM) | MIC [9]: 0.5 µg/mL (≈ 1.32 µM) | MIC [10]: 0.25 µg/mL (≈ 0.661 µM) | MIC [11]: 0.016 µg/mL (≈ 0.0423 µM) | MIC [12]: 0.016 µg/mL (≈ 0.0423 µM) | MIC [13]: 0.016 µg/mL (≈ 0.0423 µM) | MIC [14]: 0.031 µg/mL (≈ 0.0819 µM) | MIC [15]: 0.031 µg/mL (≈ 0.0819 µM) | MIC [16]: 0.5 µg/mL (≈ 1.32 µM) | MIC [17]: 4 µg/mL (≈ 10.6 µM) | MIC [18]: 0.25 µg/mL (≈ 0.661 µM)

Cc1c(-c2cccc(CN(C)C)c2)ccn2c(=O)c(C(=O)O)cc(C3CC3)c12 [Example 117, 1-Cyclopropyl-8-(3-dimethylaminomethylphenyl)-9-methyl-4-oxo-4H-quinolizine-3-carboxylic acid]
MIC [1]: 0.031 µg/mL (≈ 0.0823 µM) | MIC [2]: 0.125 µg/mL (≈ 0.332 µM) | MIC [3]: 0.5 µg/mL (≈ 1.33 µM) | MIC [4]: 1 µg/mL (≈ 2.66 µM) | MIC [5]: 0.5 µg/mL (≈ 1.33 µM) | MIC [6]: 0.063 µg/mL (≈ 0.167 µM) | MIC [7]: 0.031 µg/mL (≈ 0.0823 µM) | MIC [8]: 1 µg/mL (≈ 2.66 µM) | MIC [9]: 1 µg/mL (≈ 2.66 µM) | MIC [10]: 1 µg/mL (≈ 2.66 µM) | MIC [11]: 0.063 µg/mL (≈ 0.167 µM) | MIC [12]: 0.063 µg/mL (≈ 0.167 µM) | MIC [13]: 0.125 µg/mL (≈ 0.332 µM) | MIC [14]: 0.125 µg/mL (≈ 0.332 µM) | MIC [15]: 0.5 µg/mL (≈ 1.33 µM) | MIC [16]: 0.5 µg/mL (≈ 1.33 µM) | MIC [17]: 1 µg/mL (≈ 2.66 µM) | MIC [18]: 0.5 µg/mL (≈ 1.33 µM)

Cc1c(-c2cccc(CN3CCNCC3)c2)ccn2c(=O)c(C(=O)O)cc(C3CC3)c12 [Example 119, 1-Cyclopropyl-9-methyl-4-oxo-8-(3-piperazin-1-ylmethylphenyl)-4H-quinolizine-3-carboxylic acid]
MIC [1]: 0.016 µg/mL (≈ 0.0383 µM) | MIC [2]: 0.25 µg/mL (≈ 0.599 µM) | MIC [3]: 0.5 µg/mL (≈ 1.2 µM) | MIC [4]: 1 µg/mL (≈ 2.4 µM) | MIC [5]: 1 µg/mL (≈ 2.4 µM) | MIC [6]: 0.25 µg/mL (≈ 0.599 µM) | MIC [7]: 0.063 µg/mL (≈ 0.151 µM) | MIC [8]: 1 µg/mL (≈ 2.4 µM) | MIC [9]: 4 µg/mL (≈ 9.58 µM) | MIC [10]: 1 µg/mL (≈ 2.4 µM) | MIC [11]: 0.063 µg/mL (≈ 0.151 µM) | MIC [12]: 0.063 µg/mL (≈ 0.151 µM) | MIC [13]: 0.063 µg/mL (≈ 0.151 µM) | MIC [14]: 0.125 µg/mL (≈ 0.299 µM) | MIC [15]: 0.5 µg/mL (≈ 1.2 µM) | MIC [16]: 1 µg/mL (≈ 2.4 µM) | MIC [17]: 2 µg/mL (≈ 4.79 µM) | MIC [18]: 2 µg/mL (≈ 4.79 µM)

Cc1c(-c2cccc(N)c2)ccn2c(=O)c(C(=O)O)cc(C3CC3)c12 [Example 26, 8-(3-aminophenyl)-1-cyclopropyl-9-methyl-4-oxo-4H-quinolizine-3-carboxylic acid]
MIC [1]: ≤ 0.004 µg/mL | MIC [2]: 0.016 µg/mL (≈ 0.0479 µM) | MIC [3]: 0.125 µg/mL (≈ 0.374 µM) | MIC [4]: 0.25 µg/mL (≈ 0.748 µM) | MIC [5]: 0.125 µg/mL (≈ 0.374 µM) | MIC [6]: 0.016 µg/mL (≈ 0.0479 µM) | MIC [7]: 0.008 µg/mL (≈ 0.0239 µM) | MIC [8]: 0.125 µg/mL (≈ 0.374 µM) | MIC [9]: 0.25 µg/mL (≈ 0.748 µM) | MIC [10]: 0.125 µg/mL (≈ 0.374 µM) | MIC [11]: 0.008 µg/mL (≈ 0.0239 µM) | MIC [12]: 0.008 µg/mL (≈ 0.0239 µM) | MIC [13]: 0.008 µg/mL (≈ 0.0239 µM) | MIC [14]: 0.016 µg/mL (≈ 0.0479 µM) | MIC [15]: 0.25 µg/mL (≈ 0.748 µM) | MIC [16]: 0.125 µg/mL (≈ 0.374 µM) | MIC [17]: 0.25 µg/mL (≈ 0.748 µM) | MIC [18]: 0.063 µg/mL (≈ 0.188 µM)

Cc1c(-c2ccc(N)cc2)ccn2c(=O)c(C(=O)O)cc(C3CC3)c12 [Example 27, 8-(4-Aminophenyl)-1-cyclopropyl-9-methyl-4-oxo-4H-quinolizine-3-carboxylic acid]
MIC [1]: ≤ 0.004 µg/mL | MIC [2]: ≤ 0.004 µg/mL | MIC [3]: 0.031 µg/mL (≈ 0.0927 µM) | MIC [4]: 0.063 µg/mL (≈ 0.188 µM) | MIC [5]: 0.063 µg/mL (≈ 0.188 µM) | MIC [6]: 0.008 µg/mL (≈ 0.0239 µM) | MIC [7]: ≤ 0.004 µg/mL | MIC [8]: 0.063 µg/mL (≈ 0.188 µM) | MIC [9]: 0.25 µg/mL (≈ 0.748 µM) | MIC [10]: 0.031 µg/mL (≈ 0.0927 µM) | MIC [11]: ≤ 0.004 µg/mL | MIC [12]: ≤ 0.004 µg/mL | MIC [13]: ≤ 0.004 µg/mL | MIC [14]: 0.008 µg/mL (≈ 0.0239 µM) | MIC [15]: 0.125 µg/mL (≈ 0.374 µM) | MIC [16]: 0.031 µg/mL (≈ 0.0927 µM) | MIC [17]: 0.125 µg/mL (≈ 0.374 µM) | MIC [18]: 0.031 µg/mL (≈ 0.0927 µM)

Cc1c(-c2ccc(N)nc2)ccn2c(=O)c(C(=O)O)cc(C3CC3)c12 [Example 89, 8-(6-Aminopyridin-3-yl)-1-cyclopropyl-9-methyl-4-oxo-4H-quinolizine-3-carboxylic acid]
MIC [1]: 0.016 µg/mL (≈ 0.0477 µM) | MIC [2]: 0.125 µg/mL (≈ 0.373 µM) | MIC [3]: 0.25 µg/mL (≈ 0.745 µM) | MIC [4]: 0.5 µg/mL (≈ 1.49 µM) | MIC [5]: 0.25 µg/mL (≈ 0.745 µM) | MIC [6]: 0.031 µg/mL (≈ 0.0924 µM) | MIC [7]: 0.016 µg/mL (≈ 0.0477 µM) | MIC [8]: 0.5 µg/mL (≈ 1.49 µM) | MIC [9]: 1 µg/mL (≈ 2.98 µM) | MIC [10]: 0.5 µg/mL (≈ 1.49 µM) | MIC [11]: 0.031 µg/mL (≈ 0.0924 µM) | MIC [12]: 0.063 µg/mL (≈ 0.188 µM) | MIC [13]: 0.063 µg/mL (≈ 0.188 µM) | MIC [14]: 0.125 µg/mL (≈ 0.373 µM) | MIC [15]: 0.5 µg/mL (≈ 1.49 µM) | MIC [16]: 0.5 µg/mL (≈ 1.49 µM) | MIC [17]: 1 µg/mL (≈ 2.98 µM) | MIC [18]: 0.5 µg/mL (≈ 1.49 µM)

Cc1c(-c2ccc(CN)cc2)ccn2c(=O)c(C(=O)O)cc(C3CC3)c12 [Example 24, 8-(4-aminomethylphenyl)-1-cyclopropyl-9-methyl-4-oxo-4H-quinolizine-3-carboxylic acid]
MIC [1]: 0.016 µg/mL (≈ 0.0459 µM) | MIC [2]: 0.063 µg/mL (≈ 0.181 µM) | MIC [3]: 0.25 µg/mL (≈ 0.718 µM) | MIC [4]: 0.25 µg/mL (≈ 0.718 µM) | MIC [5]: 0.063 µg/mL (≈ 0.181 µM) | MIC [6]: 0.016 µg/mL (≈ 0.0459 µM) | MIC [7]: 0.008 µg/mL (≈ 0.023 µM) | MIC [8]: 0.5 µg/mL (≈ 1.44 µM) | MIC [9]: 0.5 µg/mL (≈ 1.44 µM) | MIC [10]: 0.5 µg/mL (≈ 1.44 µM) | MIC [11]: 0.031 µg/mL (≈ 0.089 µM) | MIC [12]: 0.031 µg/mL (≈ 0.089 µM) | MIC [13]: 0.031 µg/mL (≈ 0.089 µM) | MIC [14]: 0.063 µg/mL (≈ 0.181 µM) | MIC [15]: 0.125 µg/mL (≈ 0.359 µM) | MIC [16]: 0.25 µg/mL (≈ 0.718 µM) | MIC [17]: 0.5 µg/mL (≈ 1.44 µM) | MIC [18]: 0.125 µg/mL (≈ 0.359 µM)
